Measurements: PubChem BioAssay (NCI)
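Here, GI50 denotes the concentration required for 50% inhibition of growth. TGI denotes the concentration required for complete inhibition of growth.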

What was measured:
Experiment in all cases: inhibition of tumour cell growth, NCI panel, 384-well format
BT-549 breast = test system: BT-549 breast
HCT-15 colon = test system: HCT-15 colon
IGROV1 ovarian = test system: IGROV1 ovarian
NCI-H522 lung = test system: NCI-H522 lung
OVCAR-3 ovarian = test system: OVCAR-3 ovarian
SF-268 CNS = test system: SF-268 CNS
SF-539 CNS = test system: SF-539 CNS
SK-OV-3 ovarian = test system: SK-OV-3 ovarian
SN12C renal = test system: SN12C renal
SNB-75 CNS = test system: SNB-75 CNS
SR leukemia = test system: SR leukemia
TK-10 renal = test system: TK-10 renal
UO-31 renal = test system: UO-31 renal

With `CC(C)(O)CNc1nc(Nc2ccnc(C(F)(F)F)c2)nc(-c2cccc(C(F)(F)F)n2)n1` the GI50 (BT-549 breast) was 16 µM, the TGI (BT-549 breast) was 29.7 µM and the GI50 (HCT-15 colon) was 13.5 µM. The TGI (HCT-15 colon) was 28.1 µM, the GI50 (IGROV1 ovarian) was 18.6 µM and the TGI (IGROV1 ovarian) was 37.4 µM. For the same compound, the GI50 (NCI-H522 lung) was 17.5 µM, the TGI (NCI-H522 lung) was 35.4 µM and the GI50 (OVCAR-3 ovarian) was 17.6 µM. The TGI (OVCAR-3 ovarian) was 32.9 µM, the GI50 (SF-268 CNS) was 20.2 µM and the TGI (SF-268 CNS) was 40.3 µM. It also gave a GI50 (SF-539 CNS) of 16.3 µM, a TGI (SF-539 CNS) of 30.9 µM and a GI50 (SK-OV-3 ovarian) of 20.9 µM. For the same compound, the TGI (SK-OV-3 ovarian) was 40.9 µM, the GI50 (SN12C renal) was 19.8 µM and the TGI (SN12C renal) was 40.8 µM. For the same compound, the GI50 (SNB-75 CNS) was 18.8 µM, the TGI (SNB-75 CNS) was 37.2 µM and the GI50 (SR leukemia) was 4.82 µM. The TGI (SR leukemia) was 17.5 µM, the GI50 (TK-10 renal) was 19.8 µM and the TGI (TK-10 renal) was 43.4 µM. For the same compound, the GI50 (UO-31 renal) was 21.1 µM and the TGI (UO-31 renal) was 40.9 µM.
